From ChEMBL document CHEMBL4622979, “Non-rigid Diarylmethyl Analogs of Baloxavir as Cap-Dependent Endonuclease Inhibitors of Influenza Viruses” (J Med Chem, 2020)

Tests used:
[1] = Acute toxicity in CD1 mouse assessed as effect on spleen at 2000 mg/kg, po measured after 2 weeks by macroscopic analysis; format: organism-based; conditions: in vivo, 336 h
[2] = Half life in CD1 mouse heart assessed as (12aR)-12-(Diphenylmethyl)-7-hydroxy-3,4,12,12a-tetrahydro-1H-[1,4]oxazino[3,4-c]pyrido[2,1-f ][1,2,4]triazine-6,8-dione level at 15 mg/kg, po administered as single dose measured up to 24 hrs by LC-MS/MS analysis; format: ADME, organism-based; conditions: in vivo
[3] = Stability in human plasma assessed as parent compound remaining at 1 uM measured after 4 hrs by LC-MS/MS analysis; format: ADME, cell-free; conditions: read-out: Stability
[4] = AUClast in CD1 mouse spleen assessed as (12aR)-12-(Diphenylmethyl)-7-hydroxy-3,4,12,12a-tetrahydro-1H-[1,4]oxazino[3,4-c]pyrido[2,1-f ][1,2,4]triazine-6,8-dione level at 15 mg/kg, po administered as single dose measured up to 24 hrs by LC-MS/MS analysis; format: ADME, organism-based; conditions: in vivo
[5] = Half life in CD1 mouse spleen assessed as (12aR)-12-(Diphenylmethyl)-7-hydroxy-3,4,12,12a-tetrahydro-1H-[1,4]oxazino[3,4-c]pyrido[2,1-f ][1,2,4]triazine-6,8-dione level at 15 mg/kg, po administered as single dose measured up to 24 hrs by LC-MS/MS analysis; format: ADME, organism-based; conditions: in vivo
[6] = Acute toxicity in CD1 mouse assessed as effect on body weight at 2000 mg/kg, po measured for 2 weeks; format: organism-based; conditions: in vivo, 336 h
[7] = AUCinfinity in CD1 mouse plasma assessed as (12aR)-12-(Diphenylmethyl)-7-hydroxy-3,4,12,12a-tetrahydro-1H-[1,4]oxazino[3,4-c]pyrido[2,1-f ][1,2,4]triazine-6,8-dione level at 15 mg/kg, po administered as single dose measured up to 24 hrs by LC-MS/MS analysis; format: ADME, organism-based; parameters: dose 15 mg/kg, time infinity, route oral; conditions: in vivo
[8] = AUCinfinity in CD1 mouse blood assessed as (12aR)-12-(Diphenylmethyl)-7-hydroxy-3,4,12,12a-tetrahydro-1H-[1,4]oxazino[3,4-c]pyrido[2,1-f ][1,2,4]triazine-6,8-dione level at 15 mg/kg, po administered as single dose measured up to 24 hrs by LC-MS/MS analysis; format: ADME, organism-based; parameters: dose 15 mg/kg, time infinity, route oral; conditions: in vivo
[9] = AUCinfinity in CD1 mouse kidney assessed as (12aR)-12-(Diphenylmethyl)-7-hydroxy-3,4,12,12a-tetrahydro-1H-[1,4]oxazino[3,4-c]pyrido[2,1-f ][1,2,4]triazine-6,8-dione level at 15 mg/kg, po administered as single dose measured up to 24 hrs by LC-MS/MS analysis; format: ADME, organism-based; parameters: dose 15 mg/kg, time infinity, route oral; conditions: in vivo
[10] = AUCinfinity in CD1 mouse heart assessed as (12aR)-12-(Diphenylmethyl)-7-hydroxy-3,4,12,12a-tetrahydro-1H-[1,4]oxazino[3,4-c]pyrido[2,1-f ][1,2,4]triazine-6,8-dione level at 15 mg/kg, po administered as single dose measured up to 24 hrs by LC-MS/MS analysis; format: ADME, organism-based; parameters: dose 15 mg/kg, time infinity, route oral; conditions: in vivo
[11] = Cmax in CD1 mouse liver assessed as (12aR)-12-(Diphenylmethyl)-7-hydroxy-3,4,12,12a-tetrahydro-1H-[1,4]oxazino[3,4-c]pyrido[2,1-f ][1,2,4]triazine-6,8-dione level at 15 mg/kg, po administered as single dose measured up to 24 hrs by LC-MS/MS analysis; format: ADME, organism-based; parameters: dose 15 mg/kg, route oral; conditions: in vivo
[12] = Ratio of Cmax in CD1 mouse lung to plasma assessed as (12aR)-12-(Diphenylmethyl)-7-hydroxy-3,4,12,12a-tetrahydro-1H-[1,4]oxazino[3,4-c]pyrido[2,1-f ][1,2,4]triazine-6,8-dione level at 15 mg/kg, po administered as single dose by LC-MS/MS analysis; format: ADME, organism-based; conditions: other tissue
[13] = Stability in rat plasma assessed as parent compound remaining at 1 uM measured after 4 hrs by LC-MS/MS analysis; format: ADME, cell-free; conditions: read-out: Stability
[14] = Elimination rate constant in CD1 mouse liver assessed as baloxavir acid level at 15 mg/kg, po administered as single dose measured up to 24 hrs by LC-MS/MS analysis; format: ADME, organism-based; conditions: in vivo
[15] = Cmax in CD1 mouse spleen assessed as baloxavir acid level at 15 mg/kg, po administered as single dose measured up to 24 hrs by LC-MS/MS analysis; format: ADME, organism-based; parameters: dose 15 mg/kg, route oral; conditions: in vivo
[16] = Elimination rate constant in CD1 mouse small intestine assessed as baloxavir acid level at 15 mg/kg, po administered as single dose measured up to 24 hrs by LC-MS/MS analysis; format: ADME, organism-based; conditions: in vivo
[17] = AUClast in CD1 mouse brain assessed as baloxavir acid level at 15 mg/kg, po administered as single dose measured up to 24 hrs by LC-MS/MS analysis; format: ADME, organism-based; conditions: in vivo
[18] = Cmax in CD1 mouse heart assessed as baloxavir acid level at 15 mg/kg, po administered as single dose measured up to 24 hrs by LC-MS/MS analysis; format: ADME, organism-based; parameters: dose 15 mg/kg, route oral; conditions: in vivo
[19] = Tmax in CD1 mouse heart assessed as baloxavir acid level at 15 mg/kg, po administered as single dose measured up to 24 hrs by LC-MS/MS analysis; format: ADME, organism-based; conditions: in vivo
[20] = Elimination rate constant in CD1 mouse brain assessed as baloxavir acid level at 15 mg/kg, po administered as single dose measured up to 24 hrs by LC-MS/MS analysis; format: ADME, organism-based; conditions: in vivo
[21] = Tmax in CD1 mouse lung assessed as baloxavir acid level at 15 mg/kg, po administered as single dose measured up to 24 hrs by LC-MS/MS analysis; format: ADME, organism-based; conditions: in vivo
[22] = Cmax in CD1 mouse brain assessed as baloxavir acid level at 15 mg/kg, po administered as single dose measured up to 24 hrs by LC-MS/MS analysis; format: ADME, organism-based; parameters: dose 15 mg/kg, route oral; conditions: in vivo
[23] = Elimination rate constant in CD1 mouse plasma assessed as baloxavir acid level at 15 mg/kg, po administered as single dose measured up to 24 hrs by LC-MS/MS analysis; format: ADME, organism-based; conditions: in vivo
[24] = Ratio of AUClast in CD1 mouse blood to plasma assessed as baloxavir acid level at 15 mg/kg, po administered as single dose measured up to 24 hrs by LC-MS/MS analysis; format: ADME, organism-based; conditions: in vivo

Q: With `COC(=O)OCOc1c2n(ccc1=O)N(C(c1ccccc1)c1ccccc1)[C@@H]1COCCN1C2=O` as the compound, how does the Activity [1] read?
A: Non-Toxic

Q: And the t1/2 [2]?
A: 1.69 h

Q: And the remaining at 4 h, 1 µM [3]?
A: 8.1%

Q: What about the AUClast [4] of the same compound?
A: 4545 ng·h/g

Q: And the t1/2 [5]?
A: 1.77 h

Q: What about the Activity [6] of the same compound?
A: Non-Toxic

Q: What about the AUC [7] of the same compound?
A: 3385 ng·h/mL

Q: And the AUC [8]?
A: 2861 ng·h/g

Q: What about the AUC [9] of the same compound?
A: 18087 ng·h/g

Q: And the AUC [10]?
A: 11444 ng·h/g

Q: What about the Cmax [11] of the same compound?
A: 12775 ng/g

Q: What about the Ratio [12] of the same compound?
A: 2.2

Q: And the remaining at 4 h, 1 µM [13]?
A: 0%

Q: For `COC(=O)OCOc1c2n(ccc1=O)N([C@@H]1c3ccccc3SCc3c1ccc(F)c3F)[C@@H]1COCCN1C2=O` [BALOXAVIR MARBOXIL], which Kel [14] is on record?
A: 0.27 h⁻¹

Q: What about the Cmax [15] of the same compound?
A: 388 ng/g

Q: And the Kel [16]?
A: 0.22 h⁻¹

Q: And the AUClast [17]?
A: 317 ng·h/g

Q: And the Cmax [18]?
A: 1188 ng/g

Q: What about the Tmax [19] of the same compound?
A: 2 h

Q: What about the Kel [20] of the same compound?
A: 0.06 h⁻¹

Q: And the Tmax [21]?
A: 2 h

Q: What about the Cmax [22] of the same compound?
A: 21.9 ng/g

Q: And the Kel [23]?
A: 0.18 h⁻¹

Q: What about the “Ratio AUC” value [24] of the same compound?
A: 3.05
